Laboratory results: patent publication US12668585B2, “Substituted pyrimidinyl-pyrazoles as CDK2 inhibitors” (BLUEPRINT MEDICINES CORPORATION, priority 2021, dated 2026)
pIC50: −log10 of the molar value.

Key:
[1] = molecular target: T1, CDK1/Cyclin B1, GST-tag (Homo sapiens, UniProt P06493); assay: Biochemical CDK inhibition assay (Caliper mobility shift), CDK1/Cyclin B1
T1 construct: GST; purchased BPS 40454
Experimental: (§1) Inhibitory effects of the compounds of the disclosure were measured in biochemical assays that measure the enzymatic phosphorylation activity of CDK enzyme in complex of Cyclin proteins phosphorylates 7.5 micromolar fluorescently labelled peptide substrate, 5-FAM-QSPKKG-CONH2, (FL-Peptide 18, Perkin Elmer, 760362) in the presence of adenosine-5′-triphosphate (ATP) and varying concentrations of the test compound in 100 mM 2-[4-(2-hydroxyethyl)piperazin-1-yl] ethanesulfonic acid (HEPES), pH 7.5, 10 mM MgCl2, 0.015% Brij-35, 1 mM dithiothreitol (DTT), 1.0% dimehylsulfoxide (DMSO). […] Reactions proceeded until between 10% to 20% total peptides were phosphorylated at room temperature (25° C.) and were terminated with 35 mM 2,2′,2″,2′″-(ethane-1,2-diyldinitrilo)tetraacetic acid (EDTA). Product was detected using the Caliper mobility shift detection method where the phosphorylated peptide (product) and substrate were electrophoretically separated and measured. Percent activity was plotted against log concentration of compound and points to generate an apparent IC50. The following CDK enzymes in complex with different cyclin proteins were used in these assays: • CDK1/Cyclin B1, GST-tag (BPS, 40454), 1.5 nM used in the assay • CDK2/Cyclin E (Eurofins, 14-475), 1.25 nM used in the assays
(§2) For inhibitory activity against CDK2/Cyclin E mutant, the following designations are used: ≤10 nM=A; >10-20 nM=B; >20-30 nM=C; >30-100 nM=D and >100=E. For inhibition CDK1/Cyclin B1, GST-tag: ≥500 nM=A; <100-500 nM=B; <100 nM=C.

[2] = molecular target: T2, CDK2/Cyclin E (Homo sapiens, UniProt P24941); assay: Biochemical CDK inhibition assay (Caliper mobility shift), CDK2/Cyclin E; conditions: read-out: CDK2/cyclin E1 IC50
T2 construct: purchased Eurofins 14-475
Experimental: as §1, §2

T1 sequence (P06493 whole entry): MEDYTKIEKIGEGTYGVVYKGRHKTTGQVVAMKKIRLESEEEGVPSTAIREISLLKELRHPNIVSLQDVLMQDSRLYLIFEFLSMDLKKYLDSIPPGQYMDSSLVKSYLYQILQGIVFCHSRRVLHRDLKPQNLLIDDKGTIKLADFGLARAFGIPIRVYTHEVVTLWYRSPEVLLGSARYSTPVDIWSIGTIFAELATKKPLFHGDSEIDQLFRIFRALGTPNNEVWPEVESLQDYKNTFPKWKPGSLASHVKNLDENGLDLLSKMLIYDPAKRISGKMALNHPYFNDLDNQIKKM
T1 sequence (P14635 whole entry partner): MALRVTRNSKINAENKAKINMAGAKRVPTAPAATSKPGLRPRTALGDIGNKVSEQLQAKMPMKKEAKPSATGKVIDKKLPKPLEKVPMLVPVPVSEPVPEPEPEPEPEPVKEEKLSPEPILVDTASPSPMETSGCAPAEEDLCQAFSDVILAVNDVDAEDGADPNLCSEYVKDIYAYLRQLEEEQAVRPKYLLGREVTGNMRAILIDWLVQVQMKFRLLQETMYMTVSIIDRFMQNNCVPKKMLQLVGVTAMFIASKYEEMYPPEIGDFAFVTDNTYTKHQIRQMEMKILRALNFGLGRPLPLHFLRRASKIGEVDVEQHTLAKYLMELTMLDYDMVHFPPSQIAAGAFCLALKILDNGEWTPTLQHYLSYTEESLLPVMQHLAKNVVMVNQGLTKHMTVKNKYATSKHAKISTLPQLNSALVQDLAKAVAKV

pIC50 [1]	pIC50 [2]	SMILES
≤ 6.30	7.52 to 7.70	NS(=O)(=O)c1ccc(Nc2ncc(C(F)(F)F)c(-c3cnn(C4COC4)c3)n2)c(F)c1 [Example 43, 3-fluoro-4-((4-(1-(oxetan-3-yl)-1H-pyrazol-4-yl)-5-(trifluoromethyl)pyrimidin-2-yl)amino)benzenesulfonamide]
6.30 to 7.00	7.70 to 8.00	Cc1cc(Nc2ncc(C(F)(F)F)c(-c3cnn(CC(C)(C)O)c3)n2)cc(C)c1S(N)(=O)=O [Example 37, 4-((4-(1-(2-hydroxy-2-methylpropyl)-1H-pyrazol-4-yl)-5-(trifluoromethyl)pyrimidin-2-yl)amino)-2,6-dimethylbenzenesulfonamide]
6.30 to 7.00	≥ 8.00	NS(=O)(=O)c1ccc(Nc2ncc(C(F)(F)F)c(-c3cnn(C4(CO)CC4)c3)n2)c(F)c1 [Example 16, 3-fluoro-4-((4-(1-(1-(hydroxymethyl)cyclopropyl)-1H-pyrazol-4-yl)-5-(trifluoromethyl)pyrimidin-2-yl)amino)benzenesulfonamide]
6.30 to 7.00	≥ 8.00	CC(C)(O)Cn1cc(-c2nc(Nc3ccc(S(N)(=O)=O)cc3Cl)ncc2Cl)cn1 [Example 23, 3-chloro-4-((5-chloro-4-(1-(2-hydroxy-2-methylpropyl)-1H-pyrazol-4-yl)pyrimidin-2-yl)amino)benzenesulfonamide]
6.30 to 7.00	≥ 8.00	Cc1cc(S(N)(=O)=O)ccc1Nc1ncc(C(F)(F)F)c(-c2cnn(CC(C)(C)O)c2)n1 [Example 2, 4-((4-(1-(2-hydroxy-2-methylpropyl)-1H-pyrazol-4-yl)-5-(trifluoromethyl)pyrimidin-2-yl)amino)-3-methylbenzenesulfonamide]
> 7.00	≥ 8.00	CC(C)(O)Cn1cc(-c2nc(Nc3ccc(S(N)(=O)=O)cc3)ncc2C(F)F)cn1 [Example 4, 4-((5-(difluoromethyl)-4-(1-(2-hydroxy-2-methylpropyl)-1H-pyrazol-4-yl)pyrimidin-2-yl)amino)benzenesulfonamide]
6.30 to 7.00	≥ 8.00	CCc1cnc(Nc2ccc(S(N)(=O)=O)cc2)nc1-c1cnn(CC(C)(C)O)c1 [Example 24, 4-((5-ethyl-4-(1-(2-hydroxy-2-methylpropyl)-1H-pyrazol-4-yl)pyrimidin-2-yl)amino)benzenesulfonamide]
6.30 to 7.00	≥ 8.00	CC(C)(O)Cn1cc(-c2nc(Nc3ccc(S(N)(=O)=O)cc3F)ncc2C#N)cn1 [Example 19, 4-((5-cyano-4-(1-(2-hydroxy-2-methylpropyl)-1H-pyrazol-4-yl)pyrimidin-2-yl)amino)-3-fluorobenzenesulfonamide]
≤ 6.30	7.52 to 7.70	Cc1cc(Nc2ncc(C(F)(F)F)c(-c3cnn(CC(C)(C)O)c3)n2)c(F)cc1S(N)(=O)=O [Example 45, 5-fluoro-4-((4-(1-(2-hydroxy-2-methylpropyl)-1H-pyrazol-4-yl)-5-(trifluoromethyl)pyrimidin-2-yl)amino)-2-methylbenzenesulfonamide]
6.30 to 7.00	≥ 8.00	COc1cc(S(N)(=O)=O)ccc1Nc1ncc(Cl)c(-c2cnn(CC(C)(C)O)c2)n1 [Example 28, 4-((5-chloro-4-(1-(2-hydroxy-2-methylpropyl)-1H-pyrazol-4-yl)pyrimidin-2-yl)amino)-3-methoxybenzenesulfonamide]
6.30 to 7.00	≥ 8.00	Cc1cc(S(N)(=O)=O)ccc1Nc1ncc(F)c(-c2cnn(CC(C)(C)O)c2)n1 [Example 31, 4-((5-fluoro-4-(1-(2-hydroxy-2-methylpropyl)-1H-pyrazol-4-yl)pyrimidin-2-yl)amino)-3-methylbenzenesulfonamide]
≤ 6.30	7.70 to 8.00	N#Cc1cnc(Nc2ccc(S(N)(=O)=O)cc2)nc1-c1cnn(C2COC2)c1 [Example 39, 4-((5-cyano-4-(1-(oxetan-3-yl)-1H-pyrazol-4-yl)pyrimidin-2-yl)amino)benzenesulfonamide]
≤ 6.30	7.70 to 8.00	CC(C)(O)Cn1cc(-c2nc(Nc3ccc(S(N)(=O)=O)c(Cl)c3F)ncc2C(F)(F)F)cn1 [Example 38, 2-chloro-3-fluoro-4-((4-(1-(2-hydroxy-2-methylpropyl)-1H-pyrazol-4-yl)-5-(trifluoromethyl)pyrimidin-2-yl)amino)benzenesulfonamide]
> 7.00	≥ 8.00	CC(C)(O)Cn1cc(-c2nc(Nc3ccc(S(N)(=O)=O)cc3)ncc2F)cn1 [Example 18, 4-((5-fluoro-4-(1-(2-hydroxy-2-methylpropyl)-1H-pyrazol-4-yl)pyrimidin-2-yl)amino)benzenesulfonamide]
6.30 to 7.00	≥ 8.00	C[C@H](O)[C@@H](C)n1cc(-c2nc(Nc3ccc(S(N)(=O)=O)cc3F)ncc2C(F)(F)F)cn1 (single isomer, unassigned) [Example 15]
6.30 to 7.00	≥ 8.00	CC(C)(CO)n1cc(-c2nc(Nc3ccc(S(N)(=O)=O)cc3F)ncc2C(F)(F)F)cn1 [Example 22, 3-fluoro-4-((4-(1-(1-hydroxy-2-methylpropan-2-yl)-1H-pyrazol-4-yl)-5-(trifluoromethyl)pyrimidin-2-yl)amino)benzenesulfonamide]
